Measured values taken from article PMC11611271, “Rapid prediction of key residues for foldability by machine learning model enables the design of highly functional libraries with hyperstable constrained peptide scaffolds” (PLOS Computational Biology, 2024).
Where a SMILES comes first, the peptide text is derived from it. Bridges are numbered along the chain shown (N, C = ends).

How the values were obtained:
[1] = system: HtrA1; assay: phage spot ELISA on HtrA1; type: binding; details: for ELISA s/n: Spot ELISA signal/noise; for ELISA s/n / ELISA signal: Fig 9A; for ELISA signal: Spot ELISA
Description: To determine the performance of the libraries for ligand discovery we chose a panel of eight protein targets, which have no structural homology and a wide mass range (Fig 7C). We screened these eight targets with solution panning strategy and two additional plate panning for CD8α/β and CD28, thus ten panning campaigns in total. We consider clones showing spot phage ELISA signal > 0.3 and signal/noise ratio > 2 as positive hits. […] We also obtained the NGS data for these screening and the ranking of clones for their enrichment along the rounds of screening was analyzed and considered the top-ranking clones as potential hits. Based on their sequence diversity we selected 16 potential hits spanning five protein targets for peptide synthesis in their linear form. Seven of these are hits with positive phage ELISA signal and nine were selected based on NGS ranking without spot ELISA available. Subsequently, we conducted in vitro folding experiments on these peptides in various buffers.
(§1) The 5ji4 libraries were constructed following the Kunkel mutagenesis method and the solution panning protocol was followed as previously described. After four to five rounds of binding selection, while eluted pool was subjected to NGS analysis, individual phage clones were also picked and analyzed with phage spot ELISA. Positive clones were subjected to SANGER sequencing.
Among these five hits, A7, which is the SANGER hit, was picked for affinity maturation. Following the same strategy, one soft- and one hard-randomization library was designed targeting the 5JI4 variable regions 1 and 2, respectively. Two libraries were each panned as previously described. Both phage spot ELISA coupled with SANGER sequencing and NGS analysis were applied after affinity maturation.

[2] = system: CRD7; assay: phage spot ELISA on CRD7; type: binding
Description: To determine the performance of the libraries for ligand discovery we chose a panel of eight protein targets, which have no structural homology and a wide mass range (Fig 7C). We screened these eight targets with solution panning strategy and two additional plate panning for CD8α/β and CD28, thus ten panning campaigns in total. We consider clones showing spot phage ELISA signal > 0.3 and signal/noise ratio > 2 as positive hits. At least one binding hit was discovered for nine out of the ten panning campaigns, surpassing the success rate of the best DCP scaffolds reported previously. We also obtained the NGS data for these screening and the ranking of clones for their enrichment along the rounds of screening was analyzed and considered the top-ranking clones as potential hits. Based on their sequence diversity we selected 16 potential hits spanning five protein targets for peptide synthesis in their linear form. Seven of these are hits with positive phage ELISA signal and nine were selected based on NGS ranking without spot ELISA available. Subsequently, we conducted in vitro folding experiments on these peptides in various buffers. We observed a strong propensity for spontaneous folding regardless of the buffer condition. All HCP hits tested successfully folded into three-disulfide-containing product within two days in a universal buffer system (PBS, pH 7.4, 50% DMSO) without the need for a redox pair, as shown in Fig 8A. The binding of these folded peptides to their respective target proteins was confirmed using SPR (Table 4 and S1 Data) and binding kinetics are exemplified by the high-affinity peptide 5ji4-CRD7-2 (see Fig 8B). Among seven selected ELISA-positive hits, all of them were successfully synthesized and in vitro folded with three disulfide bonds and five were proven to be validated binders by SPR (Table 4). Nine peptides selected from the NGS ranking were synthesized and folded with the expected number of disulfide bonds and five of them bound to their target with affinities in the μM range as determined by SPR (Table 4). In general, binding affinities for these SPR-validated initial hits are weak, with Kd values in the micromolar range and fast on- and off-rates. There are two exceptions with binding affinities in the nanomolar range.
as §1

CC[C@H](C)[C@@H]1NC(=O)[C@H](CO)NC(=O)[C@@H]2CSSC[C@H](NC(=O)[C@H](CCC(=O)O)NC(=O)[C@H](C)NC(=O)[C@H](CO)NC(=O)[C@H](CO)NC(=O)[C@H]([C@@H](C)O)NC(=O)[C@H](CC(C)C)NC(=O)[C@H](Cc3ccccc3)NC(=O)[C@H](Cc3c[nH]cn3)NC(=O)[C@H](Cc3c[nH]c4ccccc34)NC(=O)CNC(=O)[C@H](CCCNC(=N)N)NC(=O)[C@H](CC(C)C)NC1=O)C(=O)N[C@@H](CCC(=O)O)C(=O)N[C@@H](CCCNC(=N)N)C(=O)N[C@@H](CC(C)C)C(=O)N[C@H]1CSSC[C@H](NC(=O)[C@H]([C@@H](C)O)NC(=O)[C@H](CCCNC(=N)N)NC(=O)[C@H](CC(C)C)NC(=O)CNC(=O)[C@H](CC(C)C)NC(=O)[C@H](CCCNC(=N)N)NC(=O)[C@H](CC(=O)O)NC1=O)C(=O)N[C@@H](CCCNC(=N)N)C(=O)N[C@@H]([C@@H](C)CC)C(=O)N[C@@H](Cc1c[nH]cn1)C(=O)N[C@H](C(=O)NCC(=O)O)CSSC[C@H](NC(=O)[C@@H]1CCCN1)C(=O)N[C@@H](CCC(=O)O)C(=O)N2 [5ji4_A7.D7B2] (H-PCECSILRGWHFLTSSAECERLCDRLGLRTCRIHCG-OH; disulfide 2-35, 4-19, 23-31)
ELISA s/n [1]: 5.3
ELISA signal [1]: 3.45

CC[C@H](C)[C@@H]1NC(=O)[C@H]([C@@H](C)O)NC(=O)[C@@H]2CSSC[C@H](NC(=O)[C@H](CCC(=O)O)NC(=O)[C@H](C)NC(=O)[C@H](CO)NC(=O)[C@H](CO)NC(=O)[C@H]([C@@H](C)O)NC(=O)[C@H](CC(C)C)NC(=O)[C@H](Cc3ccccc3)NC(=O)[C@H](Cc3ccc(O)cc3)NC(=O)[C@H](Cc3c[nH]c4ccccc34)NC(=O)CNC(=O)[C@@H]3CCCN3C(=O)[C@H](CC(C)C)NC1=O)C(=O)N[C@@H](CCC(=O)O)C(=O)N[C@@H](CCCNC(=N)N)C(=O)N[C@@H](CC(C)C)C(=O)N[C@H]1CSSC[C@H](NC(=O)[C@H]([C@@H](C)O)NC(=O)[C@H](CCCNC(=N)N)NC(=O)[C@H](CC(C)C)NC(=O)CNC(=O)[C@H](CC(C)C)NC(=O)[C@H](CCCNC(=N)N)NC(=O)[C@H](CC(=O)O)NC1=O)C(=O)N[C@@H](CCCNC(=N)N)C(=O)N[C@@H](C(C)C)C(=O)N[C@@H](Cc1c[nH]cn1)C(=O)N[C@H](C(=O)NCC(=O)O)CSSC[C@H](NC(=O)[C@@H]1CCCN1)C(=O)N[C@@H](CCC(=O)O)C(=O)N2 [5ji4_A7.H5B2] (H-PCECTILPGWYFLTSSAECERLCDRLGLRTCRVHCG-OH; disulfide 2-35, 4-19, 23-31)
ELISA s/n [1]: 7.6
ELISA signal [1]: 3.59

CC[C@H](C)[C@@H]1NC(=O)[C@@H]2CCCN2C(=O)[C@@H]2CSSC[C@H](NC(=O)[C@H](CCC(=O)O)NC(=O)[C@H](CCC(=O)O)NC(=O)[C@H](CO)NC(=O)[C@H](CO)NC(=O)[C@H](CCCCN)NC(=O)[C@H](C(C)C)NC(=O)[C@@H]3CCCN3C(=O)[C@H](C(C)C)NC(=O)CNC(=O)[C@H](Cc3ccc(O)cc3)NC(=O)[C@@H]3CCCN3C(=O)[C@H](CCCNC(=N)N)NC1=O)C(=O)N[C@@H](CCC(=O)O)C(=O)N[C@@H](CCCNC(=N)N)C(=O)N[C@@H](CC(C)C)C(=O)N[C@H]1CSSC[C@H](NC(=O)[C@H](CC(N)=O)NC(=O)[C@H]([C@@H](C)O)NC(=O)[C@H](C(C)C)NC(=O)CNC(=O)[C@H](CC(C)C)NC(=O)[C@H](CCCCN)NC(=O)[C@H](CCCNC(=N)N)NC1=O)C(=O)N[C@@H](CCCNC(=N)N)C(=O)N[C@@H](C(C)C)C(=O)N[C@@H](Cc1c[nH]cn1)C(=O)N[C@H](C(=O)NCC(=O)O)CSSC[C@H](NC(=O)[C@@H]1CCCN1)C(=O)N[C@@H](CCC(=O)O)C(=O)N2 [5ji4-CRD7-2] (H-PCECPIRPYGVPVKSSEECERLCRKLGVTNCRVHCG-OH; disulfide 2-35, 4-19, 23-31)
ELISA signal ([2]; phage spot ELISA of the clone, positive hit: signal > 0.3 and signal/noise > 2): 0.37
ELISA s/n ([2]; phage spot ELISA signal/noise ratio): 4.60

PCECDVNGETYTVSSSEECGRLCMQPWAHTCRVHCG [CRD7 clone 9, phage clone, 5JI4 library, CRD7 panning]
S/N ([2]; phage spot ELISA signal/noise, S3 Table sheet CRD7): 4.522
ELISA ([2]; phage spot ELISA signal, S3 Table sheet CRD7): 0.312

PCECTILRGWHFLTSSAECERLCRKLGVTNCRVHCG [HtrA1 clone 1, phage clone, 5JI4 library, HtrA1 panning; sole HtrA1 hit, probably 5ji4-A7]
S/N ([1]; phage spot ELISA signal/noise, S3 Table sheet HtrA1): 8.86
ELISA ([1]; phage spot ELISA signal, S3 Table sheet HtrA1): 1.0205

CC[C@H](C)[C@@H]1NC(=O)[C@H](CCCNC(=N)N)NC(=O)[C@@H]2CSSC[C@H](NC(=O)[C@H](CC(C)C)NC(=O)[C@H](CCCNC(=N)N)NC(=O)[C@H](C)NC(=O)[C@@H]3CSSC[C@H](NC(=O)[C@H](CCC(=O)O)NC(=O)[C@@H](NC(=O)[C@@H]4CCCN4)CSSC[C@@H](C(=O)NCC(=O)O)NC(=O)[C@H](Cc4c[nH]cn4)NC1=O)C(=O)N[C@@H](CO)C(=O)N[C@@H]([C@@H](C)CC)C(=O)N[C@@H](CC(C)C)C(=O)N1CCC[C@H]1C(=O)NCC(=O)N[C@@H](Cc1c[nH]c4ccccc14)C(=O)N[C@@H](Cc1c[nH]cn1)C(=O)N[C@@H](Cc1ccccc1)C(=O)N[C@@H](CC(C)C)C(=O)N[C@@H]([C@@H](C)O)C(=O)N[C@@H](CO)C(=O)N[C@@H](CO)C(=O)N[C@@H](C)C(=O)N[C@@H](CCC(=O)O)C(=O)N3)C(=O)N[C@@H](CC(=O)O)C(=O)N[C@@H](CCCNC(=N)N)C(=O)N[C@@H](CC(C)C)C(=O)NCC(=O)N[C@@H](CC(C)C)C(=O)N[C@@H](CCCNC(=N)N)C(=O)N[C@@H]([C@@H](C)O)C(=O)N2 [5ji4_A7.c1] (H-PCECSILPGWHFLTSSAECARLCDRLGLRTCRIHCG-OH; disulfide 2-35, 4-19, 23-31)
ELISA s/n [1]: 7.5
ELISA signal [1]: 3.55

CSCC[C@@H]1NC(=O)[C@H](CO)NC(=O)[C@@H]2CSSC[C@H](NC(=O)[C@H](CCC(=O)O)NC(=O)[C@H](C)NC(=O)[C@H](CO)NC(=O)[C@H](CO)NC(=O)[C@H]([C@@H](C)O)NC(=O)[C@H](CCSC)NC(=O)[C@H](Cc3ccccc3)NC(=O)[C@H]([C@@H](C)O)NC(=O)[C@H](Cc3c[nH]c4ccccc34)NC(=O)CNC(=O)[C@@H]3CCCN3C(=O)[C@H](CC(C)C)NC1=O)C(=O)N[C@@H](CCC(=O)O)C(=O)N[C@@H](CCCNC(=N)N)C(=O)N[C@@H](CC(C)C)C(=O)N[C@H]1CSSC[C@H](NC(=O)[C@H]([C@@H](C)O)NC(=O)[C@H](CCCNC(=N)N)NC(=O)[C@H](CC(C)C)NC(=O)CNC(=O)[C@H](CC(C)C)NC(=O)[C@H](CCCNC(=N)N)NC(=O)[C@H](CC(=O)O)NC1=O)C(=O)N[C@@H](CCCNC(=N)N)C(=O)N[C@@H](C(C)C)C(=O)N[C@@H](Cc1c[nH]cn1)C(=O)N[C@H](C(=O)NCC(=O)O)CSSC[C@H](NC(=O)[C@@H]1CCCN1)C(=O)N[C@@H](CCC(=O)O)C(=O)N2 [5ji4_A7.B7B2] (H-PCECSMLPGWTFMTSSAECERLCDRLGLRTCRVHCG-OH; disulfide 2-35, 4-19, 23-31)
ELISA s/n [1]: 7.2
ELISA signal [1]: 3.54

CC[C@H](C)[C@@H]1NC(=O)[C@H]([C@@H](C)O)NC(=O)[C@@H]2CSSC[C@H](NC(=O)[C@H](CCC(=O)O)NC(=O)[C@H](C)NC(=O)[C@H](CO)NC(=O)[C@H](CO)NC(=O)[C@H]([C@@H](C)O)NC(=O)[C@H](CC(C)C)NC(=O)[C@H](Cc3ccccc3)NC(=O)[C@H](Cc3c[nH]cn3)NC(=O)[C@H](Cc3c[nH]c4ccccc34)NC(=O)CNC(=O)[C@@H]3CCCN3C(=O)[C@H](CC(C)C)NC1=O)C(=O)N[C@@H](C)C(=O)N[C@@H](CCCNC(=N)N)C(=O)N[C@@H](CC(C)C)C(=O)N[C@H]1CSSC[C@H](NC(=O)[C@H]([C@@H](C)O)NC(=O)[C@H](CCCNC(=N)N)NC(=O)[C@H](CC(C)C)NC(=O)CNC(=O)[C@H](CC(C)C)NC(=O)[C@H](CCCNC(=N)N)NC(=O)[C@H](CC(=O)O)NC1=O)C(=O)N[C@@H](CCCNC(=N)N)C(=O)N[C@@H](C(C)C)C(=O)N[C@@H](Cc1c[nH]cn1)C(=O)N[C@H](C(=O)NCC(=O)O)CSSC[C@H](NC(=O)[C@@H]1CCCN1)C(=O)N[C@@H](CCC(=O)O)C(=O)N2 [5ji4_A7.B9B2] (H-PCECTILPGWHFLTSSAECARLCDRLGLRTCRVHCG-OH; disulfide 2-35, 4-19, 23-31)
ELISA s/n [1]: 7.0
ELISA signal [1]: 3.67
